Earlier results in patent US20150374878A1, “[…] FOR WOUND CARE” (AKESO BIOMEDICAL, INC., priority 2014, published 2015).

Details: see U.S. Pat. No. 5,858,365 to Faller

half-life in serum: about 2 minutes
Structure (SMILES): CCCC(=O)O [butyric acid]
